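The compound was tested at five concentrations on cells cultured in 96-well plates, with a 48-hour exposure period. GI50: concentration for 50% inhibition of growth.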 Calls of active or inactive are those of the source. No stated cut-off is given here; in the data, active = GI50 up to about 1.1 µM and inactive = higher.
Experiments:
Assay in all cases: NCI anticancer screen, dose series, 48 h
OVCAR-8 = test system: OVCAR-8
HL-60 = test system: HL-60
ACHN = test system: ACHN
M14 = test system: M14
HCT-15 = test system: HCT-15
OVCAR-5 = test system: OVCAR-5
CCRF-CEM = test system: CCRF-CEM
COLO 205 = test system: COLO 205
HOP-62 = test system: HOP-62
UACC-257 = test system: UACC-257
OVCAR-3 = test system: OVCAR-3
NCI-H226 = test system: NCI-H226
HOP-92 = test system: HOP-92
SF-268 = test system: SF-268
NCI-H23 = test system: NCI-H23
SNB-75 = test system: SNB-75
CAKI-1 = test system: CAKI-1

| SMILES | GI50 (OVCAR-8) | GI50 (HL-60) | GI50 (ACHN) | GI50 (M14) | GI50 (HCT-15) [µM] | GI50 (OVCAR-5) | GI50 (CCRF-CEM) | GI50 (COLO 205) | GI50 (HOP-62) | GI50 (UACC-257) | GI50 (OVCAR-3) | GI50 (NCI-H226) | GI50 (HOP-92) | GI50 (SF-268) | GI50 (NCI-H23) | GI50 (SNB-75) | GI50 (CAKI-1) |
| --- | --- | --- | --- | --- | --- | --- | --- | --- | --- | --- | --- | --- | --- | --- | --- | --- | --- |
| N#Cc1ccccc1NC(=O)/C(=N\N)C(C(=O)c1ccncc1)C1OC(=O)c2ccccc21 (stereo not drawn) | > 100 µM (inactive) | > 100 µM (inactive) | > 100 µM (inactive) | > 100 µM (inactive) | > 100 | > 100 µM (inactive) | > 100 µM (inactive) | > 100 µM (inactive) | > 100 µM (inactive) | > 100 µM (inactive) | > 100 µM (inactive) | > 100 µM (inactive) | > 100 µM (inactive) | > 100 µM (inactive) | > 100 µM (inactive) |  |  |
| COc1ccc(/C(=C\c2cc(OC)c(OC)c(OC)c2)C(=O)O)cc1 | 33.5 µM (inactive) | 21.3 µM (inactive) | 72.8 µM (inactive) | 26.6 µM (inactive) | 32.1 |  | 32.5 µM (inactive) | 18.3 µM (inactive) | 37.1 µM (inactive) | 61 µM (inactive) | 32 µM (inactive) | 28.1 µM (inactive) | 33.8 µM (inactive) | 51.6 µM (inactive) |  | 25.6 µM (inactive) | 30.4 µM (inactive) |
| COC(=O)[C@]1(C)CCC[C@]2(C)C3CC4OOC3(C=C4C(C)(C)O)CCC21 (stereo partly drawn) | 34.6 µM (inactive) | 14.3 µM (inactive) | 47.8 µM (inactive) | 31 µM (inactive) | 37.8 | > 100 µM (inactive) | 21.6 µM (inactive) | 69.8 µM (inactive) | > 100 µM (inactive) | 80.5 µM (inactive) | > 100 µM (inactive) | 31.1 µM (inactive) |  | 60.1 µM (inactive) | 94 µM (inactive) |  | 64.6 µM (inactive) |
| CC1=N/C(=C\c2ccc(/C=C3/N=C(C)OC3=O)cc2)C(=O)O1 | > 100 µM (inactive) |  | > 100 µM (inactive) | > 100 µM (inactive) | > 100 | > 10 µM (inactive) | > 100 µM (inactive) | > 100 µM (inactive) | > 100 µM (inactive) | > 100 µM (inactive) | > 100 µM (inactive) |  | > 100 µM (inactive) | > 100 µM (inactive) | > 100 µM (inactive) | > 100 µM (inactive) | > 100 µM (inactive) |
| CC1(c2cccc3c2C2(O)C=CC4(CCC32)OCCO4)OCCO1 (stereo not drawn) | > 100 µM (inactive) | > 100 µM (inactive) | > 100 µM (inactive) | > 100 µM (inactive) | > 100 | > 100 µM (inactive) | > 100 µM (inactive) | > 100 µM (inactive) | > 100 µM (inactive) | > 100 µM (inactive) | > 100 µM (inactive) | > 100 µM (inactive) |  | > 100 µM (inactive) | > 100 µM (inactive) | > 100 µM (inactive) | > 100 µM (inactive) |
| CCN(CC)C(=O)CCn1cc(F)c(=O)[nH]c1=O | > 100 µM (inactive) | > 100 µM (inactive) | > 100 µM (inactive) | > 100 µM (inactive) | > 100 | > 100 µM (inactive) | > 100 µM (inactive) | > 100 µM (inactive) | > 100 µM (inactive) |  | > 100 µM (inactive) | > 100 µM (inactive) |  | > 100 µM (inactive) | > 100 µM (inactive) | 4.68 µM (inactive) |  |
| COc1cccc(N2C(=O)c3c(c4[nH]c5ccccc5c4c4ccc(C(C)(C)C)cc34)C2=O)c1 | > 100 µM (inactive) |  | > 100 µM (inactive) | > 100 µM (inactive) | > 100 | > 100 µM (inactive) | > 100 µM (inactive) | > 100 µM (inactive) | > 100 µM (inactive) | > 100 µM (inactive) | > 100 µM (inactive) | > 100 µM (inactive) | > 100 µM (inactive) | > 100 µM (inactive) | > 100 µM (inactive) | > 100 µM (inactive) | > 100 µM (inactive) |
| CCOC(=O)c1cc(=O)n(C)c(=O)n1C | > 100 µM (inactive) |  | > 100 µM (inactive) | > 100 µM (inactive) | > 100 | > 100 µM (inactive) | > 100 µM (inactive) | > 100 µM (inactive) | > 100 µM (inactive) | > 100 µM (inactive) | > 100 µM (inactive) | > 100 µM (inactive) | > 100 µM (inactive) | > 100 µM (inactive) | > 100 µM (inactive) | > 100 µM (inactive) | > 100 µM (inactive) |
| O=C(CCc1cc(-c2ccc(F)cc2)n[nH]1)N(Cc1ccccc1)Cc1ccccc1 | > 100 µM (inactive) |  | > 100 µM (inactive) | > 100 µM (inactive) | > 100 | > 100 µM (inactive) | > 100 µM (inactive) | > 100 µM (inactive) | > 100 µM (inactive) | > 100 µM (inactive) | > 100 µM (inactive) | > 100 µM (inactive) | > 100 µM (inactive) | > 100 µM (inactive) | > 100 µM (inactive) | > 100 µM (inactive) | > 100 µM (inactive) |

Reference: ChEMBL document CHEMBL1201862, “PubChem BioAssay data set” (2004)
